{
  "source": "patent US7754896B2",
  "about": "“Indol-alanine derivatives as selective S1P4-agonists” (Novartis AG, priority 2004, dated 2010)",
  "system": "CHO",
  "test": "GTPγS binding assay, membranes of wild type CHO cells",
  "type": "biochemical",
  "procedure": "Membrane proteins are prepared from wild type CHO-K1 and the CHO cell clones expressing human S1P4. To obtain 10-30 mg of membrane proteins, cells are grown in one large culture dish (500 cm^2) per cell clone to 80 and 90% confluence. The culture medium is removed and the cells are harvested on ice from the dish, by scraping in 20 ml cold HEPES 10 mM (pH 7.5) supplemented with 0.1% fatty acid-free bovine serum albumin (BSA) and protease inhibitors cocktail (one tablet per 50 ml, Roche Diagnostics, Rotkreuz). […] The protein concentration is determined using the Bio Rad Protein Assay and human IgG as standard. […]\nThe selection of the clones to be tested in the GTPγS assay is based on the real time PCR assays. […] The plates are then centrifuged for 10 minutes at 2000 rpm and counted with a TopCount instrument (Packard). […]\nThe compounds mentioned in this application are tested for specificity, e.g. the activity they have in the parental cell line prior transformation with the S1P4 cDNA and for selectivity on CHO cells lines transformed with the S1P1, S1P2, S1P3, and S1P5. […] For example, S1P4 specific and selective compounds may have an EC50 (apparent EC50) measured at S1P4 that is 10×, preferably 100× lower that that measured in wild type CHO cells or In cell expressing any of the other four S1P receptors.",
  "data": [
    {"smiles": "NC(CNC(=O)c1cc2c(-c3ccccc3Cc3ccccc3)cccc2[nH]1)C(=O)O", "note": "(stereo not shown) [Example 2]", "values": [
      {"measurement": "EC50", "value": "> 10", "unit": "µM"}
    ]}
  ]
}
